This note sets out measurements from patent publication US11874603B2, “Photoresist composition comprising amide compound and pattern formation methods using the same” (Rohm And Haas Electronic Materials Korea Ltd., priority 2021, dated 2024).

A short description of this series: lipophilicity (log P) of the quencher. The settings on record: organic (oil) phase / aqueous phase partition. The format is physicochemical. From the text: Lipophilicity, most commonly referred to as the Log P, represents the ratio at equilibrium of the concentration of a compound between two phases, an oil and a […] phase. The Log P value is a constant defined in the following manner: Log P=log 10 (Partition Coefficient) Partition Coefficient, P=[organic]/[aqueous] where the square bracket parenthesis “[ ]” indicates the concentration of solute in the organic and aqueous partition.
The term logP denotes the decadic logarithm of the partition coefficient of the neutral form, usually between octanol and water. In the case of `CCCCCCCCN(CCCCCCCC)CCCCCCCC` [Quencher-A], the logP worked out at 10.8.
`CCCCCCCCN(CCCCCCCC)C(=O)CCCCCCC` [Quencher-B] showed a logP of 10.2.
On to `CCCCCCCCCCCC(=O)N(CC)CC` [Quencher-H], for which the logP was determined as 5.6.
Under `CCCCCCCCN(CCCCCCCC)C(C)=O` [Quencher-I] stands 6.69.
